Bridge positions count the residues as written; N and C are the ends. Square brackets hold non-standard residues; d marks the D form. Peptide text beside a SMILES is read from it. * marks the point of attachment. DOTA = O=C(O)CN1CCN(CC(=O)O)CCN(CC(=O)*)CCN(CC(=O)O)CC1; Lys(Me3) = C[N+](C)(C)CCCC[C@H](N)C(=O)O; 1Nal = N[C@@H](Cc1cccc2ccccc12)C(=O)O; NMeQ = CN[C@@H](CCC(N)=O)C(=O)O; Chg = N[C@H](C(=O)O)C1CCCCC1; Tle = CC(C)(C)[C@H](N)C(=O)O; αMeP = C[C@@]1(C(=O)O)CCCN1; Nle = CCCC[C@H](N)C(=O)O; Ahx = NCCCCCC(=O)O

Results on twelve molecules are retold here after patent publication US20250186541A1, “DLL3 TARGETING PEPTIDES AND CONSTRUCTS THEREOF” (MARIANA ONCOLOGY INC., priority 2023, published 2025).

This test concerns the target T1, human DLL3 (Homo sapiens, UniProt Q9NYJ7).
T1 construct: biotin (biotinylated)
T1 sequence (Q9NYJ7 27-618): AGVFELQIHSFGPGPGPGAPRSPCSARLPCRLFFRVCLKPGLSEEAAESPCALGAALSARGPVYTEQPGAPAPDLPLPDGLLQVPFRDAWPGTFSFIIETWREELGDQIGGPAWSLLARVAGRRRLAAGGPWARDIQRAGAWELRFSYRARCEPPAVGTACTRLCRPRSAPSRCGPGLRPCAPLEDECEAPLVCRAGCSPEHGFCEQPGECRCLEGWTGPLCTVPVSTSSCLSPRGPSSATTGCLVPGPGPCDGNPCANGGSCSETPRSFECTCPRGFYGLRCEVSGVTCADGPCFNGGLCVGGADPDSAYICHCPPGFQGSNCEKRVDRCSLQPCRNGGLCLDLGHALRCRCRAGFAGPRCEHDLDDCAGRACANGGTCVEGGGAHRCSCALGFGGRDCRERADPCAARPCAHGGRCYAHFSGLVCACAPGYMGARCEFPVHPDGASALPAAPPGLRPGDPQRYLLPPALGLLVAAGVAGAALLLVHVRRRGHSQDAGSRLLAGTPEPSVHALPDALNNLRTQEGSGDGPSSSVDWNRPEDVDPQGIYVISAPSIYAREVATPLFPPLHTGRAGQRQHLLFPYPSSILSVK
Briefly: Affinity determination by Surface Plasmon Resonance (SPR), Biacore, 1:1 binding model. Particulars: biotinylated human DLL3 on streptavidin chip, 25° C.; NB = nonbinding. In short, it runs like this: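 SPR with biotinylated human DLL3 captured on a streptavidin chip, with a reference surface subtracted. Samples were injected at several concentrations at 100 μL/min in phosphate buffer with 137 mM NaCl, 2.7 mM KCl, 0.05% P20 and 2% DMSO. Kinetic and affinity constants came from a 1:1 binding fit.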
In general, Kd refers to the free concentration of one partner at which half of the binding sites on the other are occupied at equilibrium, for simple one-to-one binding. Read a low Kd as tighter binding. Consider `CC(=O)N[C@H](C(=O)N[C@@H](CO)C(=O)N[C@@H](CC(=O)O)C(=O)N[C@H]1CSSC[C@@H](C(=O)N2CCC[C@H]2C(=O)N[C@@H](Cc2ccccc2)C(=O)N[C@@H](CC(=O)O)C(=O)N[C@H](CCCCNC(=O)CN2CCN(CC(=O)O)CCN(CC(=O)O)CCN(CC(=O)O)CC2)C(N)=O)NC(=O)[C@H](CC(N)=O)NC(=O)[C@H](Cc2c[nH]c3ccccc23)NC(=O)[C@H](CCC(N)=O)NC(=O)[C@H](CC(C)C)NC(=O)[C@H](Cc2c[nH]c3ccccc23)NC1=O)C(C)(C)C` [compound 76, Ac-tBuGly-S-D-C(3)-W-L-Q-W-N-C(3)-P-F-D-D-Lys(DOTA)-CONH2] (Ac-[Tle]SDCWLQWNCPFD[dK](DOTA)-NH2; disulfide 4-10), for which the Kd amounted to 12 nM.
`CC(=O)N[C@@H](CO)C(=O)N[C@@H](CO)C(=O)N[C@@H](CC(=O)O)C(=O)N[C@H]1CSSC[C@@H](C(=O)N2CCC[C@H]2C(=O)N[C@@H](Cc2ccccc2)C(=O)N[C@@H](CC(=O)O)C(=O)N[C@H](CCCCNC(=O)CN2CCN(CC(=O)O)CCN(CC(=O)O)CCN(CC(=O)O)CC2)C(N)=O)NC(=O)[C@H](CC(N)=O)NC(=O)[C@H](Cc2c[nH]c3ccccc23)NC(=O)[C@H](CCC(N)=O)NC(=O)[C@H](CC(C)C)NC(=O)[C@H](Cc2c[nH]c3ccccc23)NC1=O` [compound 78, Ac-Ser-S-D-C(3)-W-L-Q-W-N-C(3)-P-F-D-D-Lys(DOTA)-CONH2] (Ac-SSDCWLQWNCPFD[dK](DOTA)-NH2; disulfide 4-10): the affinity, expressed as Kd, was 16 nM. The Kd values of the last two molecules are within 1.5-fold of each other.
`CCCC[C@H](NC(C)=O)C(=O)N[C@@H](CO)C(=O)N[C@@H](CC(=O)O)C(=O)N[C@H]1CSSC[C@@H](C(=O)N2CCC[C@H]2C(=O)N[C@@H](Cc2ccccc2)C(=O)N[C@@H](CC(=O)O)C(=O)N[C@H](CCCCNC(=O)CN2CCN(CC(=O)O)CCN(CC(=O)O)CCN(CC(=O)O)CC2)C(N)=O)NC(=O)[C@H](CC(N)=O)NC(=O)[C@H](Cc2c[nH]c3ccccc23)NC(=O)[C@H](CCC(N)=O)NC(=O)[C@H](CC(C)C)NC(=O)[C@H](Cc2c[nH]c3ccccc23)NC1=O` [compound 79, Ac-Nle-S-D-C(3)-W-L-Q-W-N-C(3)-P-F-D-D-Lys(DOTA)-CONH2] (Ac-[Nle]SDCWLQWNCPFD[dK](DOTA)-NH2; disulfide 4-10) came in with a Kd of 9 nM. This Kd lies about 1.8-fold lower than the previous one.
Then `CC(=O)N[C@@H](Cc1ccccc1)C(=O)N[C@@H](CO)C(=O)N[C@@H](CC(=O)O)C(=O)N[C@H]1CSSC[C@@H](C(=O)N2CCC[C@H]2C(=O)N[C@@H](Cc2ccccc2)C(=O)N[C@@H](CC(=O)O)C(=O)N[C@H](CCCCNC(=O)CN2CCN(CC(=O)O)CCN(CC(=O)O)CCN(CC(=O)O)CC2)C(N)=O)NC(=O)[C@H](CC(N)=O)NC(=O)[C@H](Cc2c[nH]c3ccccc23)NC(=O)[C@H](CCC(N)=O)NC(=O)[C@H](CC(C)C)NC(=O)[C@H](Cc2c[nH]c3ccccc23)NC1=O` [compound 80, Ac-Phe-S-D-C(3)-W-L-Q-W-N-C(3)-P-F-D-D-Lys(DOTA)-CONH2] (Ac-FSDCWLQWNCPFD[dK](DOTA)-NH2; disulfide 4-10), with 10 nM; and `CC(=O)N[C@@H](CCC(=O)O)C(=O)N[C@@H](CO)C(=O)N[C@@H](CC(=O)O)C(=O)N[C@H]1CSSC[C@@H](C(=O)N2CCC[C@H]2C(=O)N[C@@H](Cc2ccccc2)C(=O)N[C@@H](CC(=O)O)C(=O)N[C@H](CCCCNC(=O)CN2CCN(CC(=O)O)CCN(CC(=O)O)CCN(CC(=O)O)CC2)C(N)=O)NC(=O)[C@H](CC(N)=O)NC(=O)[C@H](Cc2c[nH]c3ccccc23)NC(=O)[C@H](CCC(N)=O)NC(=O)[C@H](CC(C)C)NC(=O)[C@H](Cc2c[nH]c3ccccc23)NC1=O` [compound 81, Ac-Glu-S-D-C(3)-W-L-Q-W-N-C(3)-P-F-D-D-Lys(DOTA)-CONH2] (Ac-ESDCWLQWNCPFD[dK](DOTA)-NH2; disulfide 4-10), with 12.3 nM.
Consider `CC(=O)N[C@@H](CCCC[N+](C)(C)C)C(=O)N[C@@H](CO)C(=O)N[C@@H](CC(=O)O)C(=O)N[C@H]1CSSC[C@@H](C(=O)N2CCC[C@H]2C(=O)N[C@@H](Cc2ccccc2)C(=O)N[C@@H](CC(=O)O)C(=O)N[C@H](CCCCNC(=O)CN2CCN(CC(=O)O)CCN(CC(=O)O)CCN(CC(=O)O)CC2)C(N)=O)NC(=O)[C@H](CC(N)=O)NC(=O)[C@H](Cc2c[nH]c3ccccc23)NC(=O)[C@H](CCC(N)=O)NC(=O)[C@H](CC(C)C)NC(=O)[C@H](Cc2c[nH]c3ccccc23)NC1=O` [compound 85, Ac-Lys(Me)3-S-D-C(3)-W-L-Q-W-N-C(3)-P-F-D-D-Lys(DOTA)-CONH2] (Ac-[Lys(Me3)]SDCWLQWNCPFD[dK](DOTA)-NH2; disulfide 4-10), for which the Kd came to 14 nM.
For the molecule `CC(=O)N[C@@H](CO)C(=O)N[C@@H](CC(=O)O)C(=O)N[C@H]1CSSC[C@@H](C(=O)N2CCC[C@H]2C(=O)N[C@@H](Cc2ccccc2)C(=O)N[C@@H](CC(=O)O)C(=O)N[C@@H](CCCCNC(=O)CN2CCN(CC(=O)O)CCN(CC(=O)O)CCN(CC(=O)O)CC2)C(N)=O)NC(=O)[C@H](CC(N)=O)NC(=O)[C@H](Cc2c[nH]c3ccccc23)NC(=O)[C@H](CCC(N)=O)NC(=O)[C@H](CC(C)C)NC(=O)[C@H](Cc2c[nH]c3ccccc23)NC1=O` [compound 86, Ac-S-D-C(3)-W-L-Q-W-N-C(3)-P-F-D-[L-Lys(DOTA)]-NH2] (Ac-SDCWLQWNCPFDK(DOTA)-NH2; disulfide 3-9), the affinity, expressed as Kd, was 12.3 nM. The Kd values of the last two molecules are within 1.5-fold of each other.
Consider `CC(C)C[C@@H]1NC(=O)[C@H](Cc2c[nH]c3ccccc23)NC(=O)[C@@H](NC(=O)[C@H](CC(=O)O)NC(=O)[C@H](CO)NC(=O)CCCCCNC(=O)CN2CCN(CC(=O)O)CCN(CC(=O)O)CCN(CC(=O)O)CC2)CSSC[C@@H](C(=O)N2CCC[C@H]2C(=O)N[C@@H](Cc2ccccc2)C(=O)N[C@@H](CC(=O)O)C(N)=O)NC(=O)[C@H](CC(N)=O)NC(=O)[C@H](Cc2c[nH]c3ccccc23)NC(=O)[C@H](CCC(N)=O)N(C)C1=O` [compound 93, DOTA-Ahx-S-D-C(3)-W-L-(NMe-Gln)-W-N-C(3)-P-F-D-CONH2] ({DOTA-Ahx}-SDCWL[NMeQ]WNCPFD-NH2; disulfide 3-9), for which the Kd was above 100 nM.
`CC(=O)N[C@H](C(=O)N[C@@H](CO)C(=O)N[C@@H](CC(=O)O)C(=O)N[C@H]1CSSC[C@@H](C(=O)N2CCC[C@@]2(C)C(=O)N[C@@H](Cc2ccccc2)C(=O)N[C@@H](CC(=O)O)C(=O)N[C@H](CCCCNC(=O)CN2CCN(CC(=O)O)CCN(CC(=O)O)CCN(CC(=O)O)CC2)C(N)=O)NC(=O)[C@H](CC(N)=O)NC(=O)[C@H](Cc2c[nH]c3ccccc23)NC(=O)[C@H](CCC(N)=O)NC(=O)[C@H](CC(C)C)NC(=O)[C@H](Cc2cccc3ccccc23)NC1=O)C1CCCCC1` [compound 95, Ac-(Chg)-S-D-C(3)-(1Nal)-L-Q-W-N-C(3)-(aMe-P)-F-D-D-Lys(DOTA)-CONH2] (Ac-[Chg]SDC[1Nal]LQWNC[αMeP]FD[dK](DOTA)-NH2; disulfide 4-10) displayed a Kd of 0.29 nM.
For `CC(=O)N[C@H](C(=O)N[C@@H](CO)C(=O)N[C@@H](CC(=O)O)C(=O)N[C@H]1CSSC[C@@H](C(=O)N2CCC[C@H]2C(=O)N[C@@H](Cc2ccccc2)C(=O)N[C@@H](CC(=O)O)C(N)=O)NC(=O)[C@H](CC(N)=O)NC(=O)[C@H](Cc2c[nH]c3ccccc23)NC(=O)[C@H](CCC(N)=O)NC(=O)[C@H](CC(C)C)NC(=O)[C@H](CCCCNC(=O)CN2CCN(CC(=O)O)CCN(CC(=O)O)CCN(CC(=O)O)CC2)NC1=O)C1CCCCC1` [compound 97, Ac-(Chg)-S-D-C(3)-[L-Lys(DOTA)]-L-Q-W-N-C(3)-P-F-D-CONH2] (Ac-[Chg]SDCK(DOTA)LQWNCPFD-NH2; disulfide 4-10), the Kd is above 100 nM.
For `CC(=O)N[C@H](C(=O)N[C@@H](CO)C(=O)N[C@@H](CC(=O)O)C(=O)N[C@H]1CSSC[C@@H](C(=O)N2CCC[C@H]2C(=O)N[C@@H](Cc2ccccc2)C(=O)N[C@@H](CC(=O)O)C(N)=O)NC(=O)[C@H](CC(N)=O)NC(=O)[C@H](CCCCNC(=O)CN2CCN(CC(=O)O)CCN(CC(=O)O)CCN(CC(=O)O)CC2)NC(=O)[C@H](CCC(N)=O)NC(=O)[C@H](CC(C)C)NC(=O)[C@H](Cc2c[nH]c3ccccc23)NC1=O)C1CCCCC1` [compound 99, Ac-(Chg)-S-D-C(3)-W-L-Q-[L-Lys(DOTA)]-N-C(3)-P-F-D-CONH2] (Ac-[Chg]SDCWLQK(DOTA)NCPFD-NH2; disulfide 4-10), the Kd was above 100 nM.
`CC(=O)N[C@H](C(=O)N[C@@H](CO)C(=O)N[C@@H](CC(=O)O)C(=O)N[C@H]1CSSC[C@@H](C(=O)N2CCC[C@H]2C(=O)N[C@@H](Cc2ccccc2)C(=O)N[C@@H](CC(=O)O)C(N)=O)NC(=O)[C@H](CCCCNC(=O)CN2CCN(CC(=O)O)CCN(CC(=O)O)CCN(CC(=O)O)CC2)NC(=O)[C@H](Cc2c[nH]c3ccccc23)NC(=O)[C@H](CCC(N)=O)NC(=O)[C@H](CC(C)C)NC(=O)[C@H](Cc2c[nH]c3ccccc23)NC1=O)C1CCCCC1` [compound 100, Ac-(Chg)-S-D-C(3)-W-L-Q-W-[L-Lys(DOTA)]-C(3)-P-F-D-CONH2] (Ac-[Chg]SDCWLQWK(DOTA)CPFD-NH2; disulfide 4-10): the Kd is above 300 nM.
